Reference: patent US12503452B2 (Curza Global, LLC, priority 2019, dated 2025)
Structures can show the parent of a compound that is named as a salt. Where two headings read alike, the source gives them in different places.

Key:
[1] = test system: E. coli S30 extract (bacterial protein synthesis); assay: E. coli S30 extract coupled transcription-translation luciferase assay (inhibition of bacterial protein synthesis); type: biochemical; conditions: class by IC50 or % inhibition @ 1 μM, read-out: S30 IC50 (μM/% inhib.)
Outline: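 Luminescent read-out of luciferase made from pBESTluc DNA by E. coli S30 extract after 1 h at 37 °C with compound in an 8-point 2-fold series. Background came from no-DNA reactions. Percent inhibition was calculated against water-only controls.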

[2] = biological target: Rabbit Reticulocyte Lysate (eukaryotic protein synthesis); assay: Rabbit reticulocyte lysate luciferase assay (inhibition of eukaryotic protein synthesis); type: biochemical; conditions: class by IC50 or % inhibition @ 1 μM, read-out: Rabbit reticulocyte IC50 (μM/% inhib.)
Outline: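 Compounds were tested in 8-point 2-fold dilution series for blocking luciferase synthesis in nuclease-treated rabbit reticulocyte lysate (30° C., 90 minutes). Luminescence read-out, corrected by no-RNA background, was expressed as % inhibition against water-only reactions.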

A. baumannii (Ab) = assay: Broth microdilution minimum inhibitory concentration (MIC); type: cell-based; conditions: for MIC: Acinetobacter baumannii, read-out: Ab + bicarb MIC
Outline: (§1)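 MICs were run in triplicate per CLSI microdilution (modified, 8 dilution steps), inoculating 5×10^4 CFU/well prepared from colonies grown at 35±2° C to 0.5 McFarland. Media: CAMHB alone, with 6.25 or 25 mM final sodium bicarbonate, or with 0–50% heat-inactivated human serum.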

E. coli (Ec) = assay: as above; type: cell-based; conditions: for MIC: Escherichia coli, read-out: E. coli + bicarb MIC
Outline: as §1

E. faecalis (Ef) = assay: as above; type: cell-based; conditions: for MIC: Enterococcus faecalis, read-out: Ef + bicarb MIC
Outline: as §1

P. aeruginosa (Pa) = assay: as above; type: cell-based; conditions: for MIC: Pseudomonas aeruginosa, read-out: Pa MIC + bicarb
Outline: as §1

S. aureus (Sa) = assay: as above; type: cell-based; conditions: for MIC: Staphylococcus aureus, read-out: Sa + bicarb MIC
Outline: as §1

[3] = A. baumannii, growth medium with sodium bicarbonate
[4] = E. coli, growth medium with sodium bicarbonate
[5] = E. faecalis, growth medium with sodium bicarbonate
[6] = P. aeruginosa, growth medium with sodium bicarbonate
[7] = S. aureus, growth medium with sodium bicarbonate
[8] = A. baumannii, growth medium supplemented with sodium bicarbonate
[9] = E. coli, growth medium supplemented with sodium bicarbonate
[10] = E. faecalis, growth medium supplemented with sodium bicarbonate
[11] = P. aeruginosa, growth medium supplemented with sodium bicarbonate
[12] = S. aureus, growth medium supplemented with sodium bicarbonate

Structure (SMILES) | IC50 [1] [µM] | IC50 [2] [µM] | MIC (A. baumannii (Ab); [3]) [µg/mL] | MIC (E. coli (Ec); [4]) [µg/mL] | MIC (E. faecalis (Ef); [5]) [µg/mL] | MIC (P. aeruginosa (Pa); [6]) [µg/mL] | MIC (S. aureus (Sa); [7]) [µg/mL] | MIC (A. baumannii (Ab); [8]) [µg/mL] | MIC (E. coli (Ec); [9]) [µg/mL] | MIC (E. faecalis (Ef); [10]) [µg/mL] | MIC (P. aeruginosa (Pa); [11]) [µg/mL] | MIC (S. aureus (Sa); [12]) [µg/mL] | other results
CCN(C(C)Cc1ccc(-n2ccc(NC(=O)N3CCN(C(=O)C(C)(C)N)CC3)nc2=O)cc1)C1CCC(N)CC1 (stereo not shown) [Compound 282] | > 1 | > 1 |  |  |  |  |  |  |  |  |  |  | Ab + bicarb MIC (A. baumannii (Ab); [3]): + (An MIC value (μg/mL) that is 32 μg/mL or greater); E. coli + bicarb MIC (E. coli (Ec); [4]): +++ (An MIC value (μg/mL) that is less than 8 μg/mL); Ef + bicarb MIC (E. faecalis (Ef); [5]): + (An MIC value (μg/mL) that is 32 μg/mL or greater); Pa MIC + bicarb (P. aeruginosa (Pa); [6]): + (An MIC value (μg/mL) that is 32 μg/mL or greater); Sa + bicarb MIC (S. aureus (Sa); [7]): +++ (An MIC value (μg/mL) that is less than 8 μg/mL)
CC(C)(N)C(=O)N1CCN(C(=O)Nc2ccn(-c3ccc(CNC4CCC(N)CC4)c(Cl)c3)c(=O)n2)CC1 (stereo not shown) [Compound 271] | < 0.5 | > 1 | > 32 | < 8 | < 8 | > 32 | < 8 |  |  |  |  |  | 
CC(Cc1ccc(-n2ccc(NC(=O)N3CCN(C(=O)C(C)(C)N)CC3)nc2=O)cc1)N(C)C[C@H]1CCC[C@H](N)C1 (stereo partly shown) [Compound 279] | > 1 | > 1 | > 32 | < 8 | 8 to 32 | > 32 | < 8 |  |  |  |  |  | 
CC(Cc1ccc(-n2ccc(NC(=O)N3CCN(C(=O)C(C)(C)N)CC3)nc2=O)cc1)N(C)C[C@H]1C[C@H](N)C1 (stereo partly shown) [Compound 157] | < 0.5 | > 1 |  |  |  |  |  | > 32 | < 8 | < 8 | > 32 | < 8 | 
CCN(Cc1ccc(-n2ccc(NC(=O)N3CCN(C(=O)[C@@](C)(N)CO)CC3)nc2=O)cc1)C1CCC(N)CC1 (stereo partly shown) [Compound 287] | < 0.5 | > 1 | > 32 | < 8 | < 8 | 8 to 32 | < 8 |  |  |  |  |  | 
CC(CN1CC[C@H](CN)C1)Oc1ccc(-n2ccc(NC(=O)N3CCN(C(=O)C(C)(C)N)CC3)nc2=O)cc1 (stereo partly shown) [Compound 184] | < 0.5 | > 1 | > 32 | < 8 | 8 to 32 | > 32 | < 8 |  |  |  |  |  | 
CC(CN1CC[C@@H](CN)C1)Oc1ccc(-n2ccc(NC(=O)N3CCN(C(=O)C(C)(C)N)CC3)nc2=O)cc1 (stereo partly shown) [Compound 185] | < 0.5 | > 1 | > 32 | < 8 | 8 to 32 | > 32 | < 8 |  |  |  |  |  | 
CC(Cc1ccc(-n2ccc(NC(=O)N3CCN(C(=O)C(C)(C)N)CC3)nc2=O)cc1)N(C)[C@H]1CC[C@@H](N)CC1 (stereo partly shown) [Compound 176] | < 0.5 | > 1 |  |  |  |  |  |  |  |  |  |  | Ab + bicarb MIC (A. baumannii (Ab); [3]): + (An MIC value (μg/mL) that is 32 μg/mL or greater); E. coli + bicarb MIC (E. coli (Ec); [4]): +++ (An MIC value (μg/mL) that is less than 8 μg/mL); Ef + bicarb MIC (E. faecalis (Ef); [5]): +++ (An MIC value (μg/mL) that is less than 8 μg/mL); Pa MIC + bicarb (P. aeruginosa (Pa); [6]): + (An MIC value (μg/mL) that is 32 μg/mL or greater); Sa + bicarb MIC (S. aureus (Sa); [7]): +++ (An MIC value (μg/mL) that is less than 8 μg/mL)
CC1(CN)CCN(Cc2ccc(-n3ccc(NC(=O)N4CCN(C(=O)C(C)(C)N)CC4)nc3=O)cc2)CC1 [Compound 249] | < 0.5 | > 1 | > 32 | < 8 | 8 to 32 | > 32 | < 8 |  |  |  |  |  | 
CC(Cc1ccc(-n2ccc(NC(=O)N3CCN(C(=O)C(C)(C)N)CC3)nc2=O)cc1)N(C)CC1CNC1 (stereo not shown) [Compound 166] | > 1 | > 1 | > 32 | 8 to 32 | > 32 | > 32 | 8 to 32 |  |  |  |  |  | 
NC1CCCN(CCc2ccc(-n3ccc(NC(=O)N4CCC5(CC4)CNC5)nc3=O)cc2)CC1 (stereo not shown) [Compound 192] | > 1 | > 1 | > 32 | < 8 | 8 to 32 | > 32 | < 8 |  |  |  |  |  | 
C[C@](N)(CO)C(=O)N1CCN(C(=O)Nc2ccn(-c3ccc(CN4CC(CCN)C4)cc3)c(=O)n2)CC1 [Compound 136] | < 0.5 | > 1 |  |  |  |  |  | > 32 | 8 to 32 | 8 to 32 | > 32 | 8 to 32 | 
CC(N)C1CCN(Cc2ccc(-n3ccc(NC(=O)N4CCN(C(=O)C(C)(C)N)CC4)nc3=O)cn2)CC1 (stereo not shown) [Compound 95] | < 0.5 | > 1 |  |  |  |  |  | > 32 | < 8 | > 32 | > 32 | 8 to 32 | 
CC(C)(N)C(=O)N1CCN(C(=O)Nc2ccn(-c3ccc(CCN[C@H]4CC[C@@H](N)CC4)cc3)c(=O)n2)CC1 [Compound 179] | < 0.5 | > 1 | > 32 | < 8 | 8 to 32 | > 32 | < 8 |  |  |  |  |  | 
C[C@@H]1CN(C(=O)C(C)(C)N)CCN1C(=O)Nc1ccn(-c2ccc(CCN3CCCC(N)CC3)cc2)c(=O)n1 (stereo partly shown) [Compound 90] | < 0.5 | > 1 |  |  |  |  |  | < 8 | < 8 | < 8 | > 32 | < 8 | 
CN(Cc1ccc(-n2ccc(NC(=O)N3CCN(C(=O)C(C)(C)N)CC3)nc2=O)cc1)[C@H]1CC[C@@H](N)CC1 [Compound 121] | < 0.5 | > 1 |  |  |  |  |  | > 32 | < 8 | < 8 | > 32 | < 8 | 
CCCN(Cc1ccc(-n2ccc(NC(=O)N3CCN(C(=O)C(C)(C)N)CC3)nc2=O)cc1)[C@H]1CC[C@H](N)CC1 [Compound 131] | < 0.5 | > 1 |  |  |  |  |  | < 8 | < 8 | < 8 | 8 to 32 | < 8 | 
CC(C)(N)C(=O)N1CCN(C(=O)Nc2ccn(-c3ccc(CNCC4CC(N)C4)cc3)c(=O)n2)CC1 (stereo not shown) [Compound 126] | < 0.5 | > 1 |  |  |  |  |  | > 32 | < 8 | > 32 | > 32 | 8 to 32 | 
CN(Cc1ccc(-n2ccc(NC(=O)N3CCN(C(=O)C(C)(C)N)CC3)nc2=O)cc1)C1CC(N)CC(O)C1 (stereo not shown) [Compound 343, hydrochloride salt] | 0.5 to 1 | > 1 |  |  |  |  |  |  |  |  |  |  | MIC (A. baumannii (Ab)): > 32 µg/mL; MIC (E. coli (Ec)): 8 to 32 µg/mL; MIC (E. faecalis (Ef)): > 32 µg/mL; MIC (P. aeruginosa (Pa)): > 32 µg/mL; MIC (S. aureus (Sa)): > 32 µg/mL
